Results: US20230053540A1, “TREATMENT OF LIVER INJURY” (Massachusetts Institute of Technology, priority 2019, published 2023)

Tested on: hepatocytes
Assay: Seq-Well scRNA-Seq of hepatocytes after APAP overdose (signature scores, DEG vs untreated)
Format: in vivo, mouse
Conditions: APAP vs. UT

With `CC(=O)Nc1ccc(O)cc1` [APAP, acetaminophen] the “Hmgcs2 avg_logFC” value was 0.3105, the “Hmgcs2 pct.1” value was 0.974 and the “Hmox1 avg_logFC” value was 0.3298. The “Hmox1 pct.1” value was 0.108, the “Hnf4a avg_logFC” value was 0.4538 and the “Hnf4a pct.1” value was 0.876. For the same molecule, the “Hp avg_logFC” value was 0.2604, the “Hp pct.1” value was 0.998 and the “Hrg avg_logFC” value was 0.321. For the same molecule, the “Hrg pct.1” value was 0.88, the “Hsd3b5 avg_logFC” value was −0.4712 and the “Hsd3b5 pct.1” value was 0.367. The “Hsd17b13 avg_logFC” value was 0.4437, the “Hsd17b13 pct.1” value was 0.798 and the “Hspa5 avg_logFC” value was 0.4048. The “Hspa5 pct.1” value was 0.971, the “Hyou1 avg_logFC” value was 0.3658 and the “Hyou1 pct.1” value was 0.561. For the same molecule, the “Igfbp4 avg_logFC” value was 0.3148, the “Igfbp4 pct.1” value was 0.919 and the “Iigp1 avg_logFC” value was 0.3448. The “Iigp1 pct.1” value was 0.851, the “Il1r1 avg_logFC” value was 0.3633 and the “Il1r1 pct.1” value was 0.39. The “Insig1 avg_logFC” value was 0.2541, the “Insig1 pct.1” value was 0.597 and the “Itih2 avg_logFC” value was 0.2682. The “Itih2 pct.1” value was 0.942, the “Kif1b avg_logFC” value was 0.264 and the “Kif1b pct.1” value was 0.629. For the same molecule, the “Krt18 avg_logFC” value was 0.3307, the “Krt18 pct.1” value was 0.72 and the “Lars2 avg_logFC” value was 1.069. The “Lars2 pct.1” value was 0.997, the “Lifr avg_logFC” value was −0.3532 and the “Lifr pct.1” value was 0.608. For the same molecule, the “Lipa avg_logFC” value was 0.2577, the “Lipa pct.1” value was 0.73 and the “Lpgat1 avg_logFC” value was 0.3539. For the same molecule, the “Lpgat1 pct.1” value was 0.693, the “Lpin2 avg_logFC” value was 0.3984 and the “Lpin2 pct.1” value was 0.79. The “Lrg1 avg_logFC” value was 0.3478, the “Lrg1 pct.1” value was 0.861 and the “Lrrc58 avg_logFC” value was 0.2998. The “Lrrc58 pct.1” value was 0.542, the “Man2a1 avg_logFC” value was 0.3404 and the “Man2a1 pct.1” value was 0.742. For the same molecule, the “Mat1a avg_logFC” value was 0.75, the “Mat1a pct.1” value was 0.983 and the “Mbnl1 avg_logFC” value was 0.251. The “Mbnl1 pct.1” value was 0.511, the “Mfsd2a avg_logFC” value was 0.4484 and the “Mfsd2a pct.1” value was 0.413. For the same molecule, the “Mia3 avg_logFC” value was 0.2557, the “Mia3 pct.1” value was 0.749 and the “Mt1 avg_logFC” value was 0.8909. The “Mt1 pct.1” value was 0.701, the “Mt2 avg_logFC” value was 0.6697 and the “Mt2 pct.1” value was 0.518. The “Mup3 avg_logFC” value was −0.5425, the “Mup3 pct.1” value was 0.999 and the “Mup4 avg_logFC” value was −1.001. For the same molecule, the “Mup4 pct.1” value was 0.716, the “Mup5 avg_logFC” value was −1.342 and the “Mup5 pct.1” value was 0.541. For the same molecule, the “Mup6 avg_logFC” value was −1.882, the “Mup6 pct.1” value was 0.804 and the “Mup7 avg_logFC” value was −0.6015. For the same molecule, the “Mup7 pct.1” value was 0.937, the “Mup8 avg_logFC” value was −0.7268 and the “Mup8 pct.1” value was 0.13. The “Mup9 avg_logFC” value was −1.914, the “Mup9 pct.1” value was 0.594 and the “Mup11 avg_logFC” value was −1.728. For the same molecule, the “Mup11 pct.1” value was 0.84, the “Mup12 avg_logFC” value was −0.3713 and the “Mup12 pct.1” value was 0.665. The “Mup15 avg_logFC” value was −1.26, the “Mup15 pct.1” value was 0.166 and the “Mup16 avg_logFC” value was −1.125. The “Mup16 pct.1” value was 0.594, the “Mup17 avg_logFC” value was −2.017 and the “Mup17 pct.1” value was 0.947. For the same molecule, the “Mup18 avg_logFC” value was −1.639, the “Mup18 pct.1” value was 0.838 and the “Mup19 avg_logFC” value was −1.786. The “Mup19 pct.1” value was 0.916, the “Mup21 avg_logFC” value was −0.8723 and the “Mup21 pct.1” value was 0.702. For the same molecule, the “Myh9 avg_logFC” value was 0.4507, the “Myh9 pct.1” value was 0.531 and the “Ndrg2 avg_logFC” value was 0.2845. The “Ndrg2 pct.1” value was 0.956, the “Ndufa4 avg_logFC” value was −0.2617 and the “Ndufa4 pct.1” value was 0.851. For the same molecule, the “Ndufs6 avg_logFC” value was −0.2721, the “Ndufs6 pct.1” value was 0.678 and the “Nudt7 avg_logFC” value was −0.6192. The “Nudt7 pct.1” value was 0.691, the “P4hb avg_logFC” value was 0.2586 and the “P4hb pct.1” value was 0.958. The “Pabpc1 avg_logFC” value was 0.3735, the “Pabpc1 pct.1” value was 0.75 and the “Picalm avg_logFC” value was 0.2666. For the same molecule, the “Picalm pct.1” value was 0.558, the “Pigr avg_logFC” value was 0.2747 and the “Pigr pct.1” value was 0.952. For the same molecule, the “Plin2 avg_logFC” value was 0.3714, the “Plin2 pct.1” value was 0.799 and the “Prdx1 avg_logFC” value was −0.3499. The “Prdx1 pct.1” value was 0.878, the “Prdx4 avg_logFC” value was −0.2905 and the “Prdx4 pct.1” value was 0.55. The “Pten avg_logFC” value was 0.265, the “Pten pct.1” value was 0.645 and the “Ranbp2 avg_logFC” value was 0.2567. For the same molecule, the “Ranbp2 pct.1” value was 0.555, the “Reep6 avg_logFC” value was 0.2892 and the “Reep6 pct.1” value was 0.837. For the same molecule, the “Retsat avg_logFC” value was 0.4126, the “Retsat pct.1” value was 0.87 and the “Rora avg_logFC” value was 0.2853. For the same molecule, the “Rora pct.1” value was 0.547, the “Rpl36al avg_logFC” value was −0.2702 and the “Rpl36al pct.1” value was 0.495. For the same molecule, the “Rps15 avg_logFC” value was −0.2722, the “Rps15 pct.1” value was 0.49 and the “S100a9 avg_logFC” value was 0.3176. The “S100a9 pct.1” value was 0.058, the “Sdhc avg_logFC” value was 0.2605 and the “Sdhc pct.1” value was 0.738. The “Sec61a1 avg_logFC” value was 0.2648, the “Sec61a1 pct.1” value was 0.642 and the “Selenbp2 avg_logFC” value was −0.8304. The “Selenbp2 pct.1” value was 0.751, the “Sephs2 avg_logFC” value was 0.4286 and the “Sephs2 pct.1” value was 0.865. For the same molecule, the “Sepp1 avg_logFC” value was 0.3455, the “Sepp1 pct.1” value was 1 and the “Serpina1a avg_logFC” value was −0.3347. The “Serpina1a pct.1” value was 0.96, the “Serpina1e avg_logFC” value was −0.4681 and the “Serpina1e pct.1” value was 0.99. For the same molecule, the “Serpina3m avg_logFC” value was 0.4597, the “Serpina3m pct.1” value was 0.836 and the “Serpina3n avg_logFC” value was 0.4496. For the same molecule, the “Serpina3n pct.1” value was 0.76, the “Serpina12 avg_logFC” value was −0.279 and the “Serpina12 pct.1” value was 0.362. The “Sfxn1 avg_logFC” value was 0.2624, the “Sfxn1 pct.1” value was 0.636 and the “Sh3glb1 avg_logFC” value was 0.2521. For the same molecule, the “Sh3glb1 pct.1” value was 0.47, the “Slc4a4 avg_logFC” value was 0.2827 and the “Slc4a4 pct.1” value was 0.558. The “Slc25a47 avg_logFC” value was 0.3096, the “Slc25a47 pct.1” value was 0.927 and the “Slc39a14 avg_logFC” value was 0.356. For the same molecule, the “Slc39a14 pct.1” value was 0.552, the “Slc40a1 avg_logFC” value was 0.2768 and the “Slc40a1 pct.1” value was 0.517. For the same molecule, the “Slco1a4 avg_logFC” value was 0.3826, the “Slco1a4 pct.1” value was 0.484 and the “Snord118 avg_logFC” value was 0.4707. For the same molecule, the “Snord118 pct.1” value was 0.531, the “Srxn1 avg_logFC” value was 0.564 and the “Srxn1 pct.1” value was 0.369. The “Ssr3 avg_logFC” value was 0.2529, the “Ssr3 pct.1” value was 0.732 and the “St3gal5 avg_logFC” value was 0.3876. For the same molecule, the “St3gal5 pct.1” value was 0.695, the “Sult1a1 avg_logFC” value was 0.3652 and the “Sult1a1 pct.1” value was 0.799. The “Tgoln1 avg_logFC” value was 0.2677, the “Tgoln1 pct.1” value was 0.713 and the “Tm4sf4 avg_logFC” value was 0.276. For the same molecule, the “Tm4sf4 pct.1” value was 0.493, the “Tmed5 avg_logFC” value was 0.3027 and the “Tmed5 pct.1” value was 0.689. For the same molecule, the “Tmem205 avg_logFC” value was −0.2953, the “Tmem205 pct.1” value was 0.877 and the “Tnfrsf12a avg_logFC” value was 0.2588. For the same molecule, the “Tnfrsf12a pct.1” value was 0.193, the “Trp53inp1 avg_logFC” value was 0.3977 and the “Trp53inp1 pct.1” value was 0.526. The “Ttpa avg_logFC” value was 0.3932, the “Ttpa pct.1” value was 0.916 and the “Txnrd1 pct.1” value was 0.64. For the same molecule, the “Uroc1 avg_logFC” value was 0.3135, the “Uroc1 pct.1” value was 0.74 and the “Usp9x avg_logFC” value was 0.2541. For the same molecule, the “Usp9x pct.1” value was 0.503, the “Wbp1l avg_logFC” value was 0.3662 and the “Wbp1l pct.1” value was 0.768. For the same molecule, the “Zfp91 avg_logFC” value was 0.2619, the “Zfp91 pct.1” value was 0.666 and the “mmu-mir-6240 avg_logFC” value was 0.3395. The “mmu-mir-6240 pct.1” value was 0.22, the “mt-Co1 avg_logFC” value was −0.9219 and the “mt-Co1 pct.1” value was 0.977. For the same molecule, the “mt-Co2 avg_logFC” value was −1.078.
